Reference: the supplement of paper PMC10307832

What was measured:
Assay in all cases: relative viability (nuclei count vs DMSO), 5 days (fraction); higher = more cells survive
Alisertib + OSI-027 = compound: COc1cc(Nc2ncc3c(n2)-c2ccc(Cl)cc2C(c2c(F)cccc2OC)=NC3)ccc1C(=O)O [Alisertib] + COc1cccc2cc(-c3nc([C@H]4CC[C@H](C(=O)O)CC4)n4ncnc(N)c34)[nH]c12 [OSI-027] (partner 0.5 µM)
How it was run: (§1)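 Five library-drug doses in √10 steps were combined with a fixed anchor-drug dose, or a single drug was given alone, by pin tool to lung cancer cell lines in 1536-well plates the day after seeding. Nuclei were stained and counted after 5 days. Relative viability is the nuclei count in treated wells over that in vehicle wells, taken as the median of duplicate plates.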

Alisertib + Lapatinib = compound: COc1cc(Nc2ncc3c(n2)-c2ccc(Cl)cc2C(c2c(F)cccc2OC)=NC3)ccc1C(=O)O [Alisertib] + CS(=O)(=O)CCNCc1ccc(-c2ccc3ncnc(Nc4ccc(OCc5cccc(F)c5)c(Cl)c4)c3c2)o1 [Lapatinib] (partner 2 µM)
How it was run: as §1

Alisertib + Linsitinib = compound: COc1cc(Nc2ncc3c(n2)-c2ccc(Cl)cc2C(c2c(F)cccc2OC)=NC3)ccc1C(=O)O [Alisertib] + C[C@]1(O)C[C@@H](c2nc(-c3ccc4ccc(-c5ccccc5)nc4c3)c3c(N)nccn32)C1 [Linsitinib] (partner 1 µM)
How it was run: as §1

Alisertib + Alpelisib = compound: COc1cc(Nc2ncc3c(n2)-c2ccc(Cl)cc2C(c2c(F)cccc2OC)=NC3)ccc1C(=O)O [Alisertib] + Cc1nc(NC(=O)N2CCC[C@H]2C(N)=O)sc1-c1ccnc(C(C)(C)C(F)(F)F)c1 [Alpelisib] (partner 2 µM)
How it was run: as §1

Cell Line	relative viability (Alisertib + OSI-027; first compound 0.005 µM)	relative viability (Alisertib + OSI-027; first compound 0.01581 µM)	relative viability (Alisertib + OSI-027; first compound 0.05 µM)	relative viability (Alisertib + OSI-027; first compound 0.1581 µM)	relative viability (Alisertib + OSI-027; first compound 0.5 µM)	relative viability (Alisertib + Lapatinib; first compound 0.005 µM)	relative viability (Alisertib + Lapatinib; first compound 0.01581 µM)	relative viability (Alisertib + Lapatinib; first compound 0.05 µM)	relative viability (Alisertib + Lapatinib; first compound 0.1581 µM)	relative viability (Alisertib + Lapatinib; first compound 0.5 µM)	relative viability (Alisertib + Linsitinib; first compound 0.005 µM)	relative viability (Alisertib + Linsitinib; first compound 0.01581 µM)	relative viability (Alisertib + Linsitinib; first compound 0.05 µM)	relative viability (Alisertib + Linsitinib; first compound 0.1581 µM)	relative viability (Alisertib + Linsitinib; first compound 0.5 µM)	relative viability (Alisertib + Alpelisib; first compound 0.005 µM)	relative viability (Alisertib + Alpelisib; first compound 0.01581 µM)	relative viability (Alisertib + Alpelisib; first compound 0.05 µM)	relative viability (Alisertib + Alpelisib; first compound 0.1581 µM)	relative viability (Alisertib + Alpelisib; first compound 0.5 µM)
HCC-44	0.465	0.313	0.368	0.166	0.186	0.991	0.922	0.906	0.242	0.151	0.73	0.683	0.42	0.328	0.113	0.759	0.716	0.458	0.17	0.0925
HCC-78	0.536	0.354	0.244	0.244	0.241	0.743	0.783	0.428	0.205	0.19	0.412	0.418	0.183	0.15	0.187	0.319	0.254	0.162	0.133	0.142
HCC-366	0.973	0.696	0.0686	0.04	0.0334	1.02	0.31	0.0171	0.0127	0.0262	0.688	0.611	0.043	0.0079	0.0142	0.337	0.46	0.0611	0.0117	0.0152
HCC-827	0.722	0.755	0.685	0.257	0.18	0.183	0.228	0.191	0.16	0.101	0.908	0.928	0.543	0.434	0.316	1.05	0.913	0.321	0.282	0.232
HOP-62	0.683	0.727	0.537	0.243	0.176	0.838	0.803	0.883	0.223	0.146	0.551	0.853	0.305	0.203	0.155	0.926	0.976	0.345	0.198	0.133
IA-LM	–	–	–	–	–	0.853	0.91	0.309	0.212	0.184	0.478	0.659	0.324	0.223	0.0931	0.407	0.739	0.462	0.247	0.0598
LC-2-ad	0.587	0.368	0.441	0.307	0.268	0.681	0.465	0.244	0.152	0.118	0.643	0.399	0.187	0.135	0.121	0.766	0.631	0.209	0.138	0.0966
LCLC-97TM1	0.424	0.349	0.264	0.129	0.0853	0.405	0.723	0.623	0.262	0.126	0.197	0.185	0.135	0.114	0.0896	0.23	0.203	0.15	0.138	0.112
LCLC-103H	0.427	0.438	0.473	0.201	0.204	–	–	–	–	–	1.05	1.03	1.03	0.235	0.297	0.849	1.03	0.313	0.335	0.333
LK-2	0.224	0.232	0.185	0.166	0.17	0.842	0.87	0.49	0.344	0.242	0.519	0.454	0.337	0.206	0.175	1.08	0.878	0.364	0.299	0.268
LOU-NH91	0.682	0.719	0.674	0.389	0.324	0.773	0.784	0.731	0.484	0.361	0.977	0.941	0.818	0.491	0.403	0.728	0.762	0.635	0.442	0.409
LU99A	0.301	0.324	0.259	0.204	0.164	0.855	0.852	0.651	0.214	0.186	0.532	0.511	0.193	0.177	0.168	0.493	0.455	0.181	0.163	0.154
NCI-H441	0.532	0.446	0.222	0.22	0.215	–	–	–	–	–	0.504	0.333	0.243	0.129	0.129	0.787	0.528	0.172	0.153	0.157
NCI-H522	0.684	0.618	0.69	0.532	0.433	–	–	–	–	–	–	–	–	–	–	–	–	–	–	–
NCI-H1299	–	–	–	–	–	0.939	0.904	0.586	0.452	0.295	0.936	0.932	0.71	0.271	0.189	1.06	1	0.815	0.522	0.279
NCI-H1648	0.258	0.242	0.23	0.252	0.239	–	–	–	–	–	–	–	–	–	–	–	–	–	–	–
NCI-H1650	0.565	0.501	0.278	0.108	0.166	0.768	0.222	0.203	0.175	0.228	–	–	–	–	–	–	–	–	–	–
NCI-H1703	–	–	–	–	–	1.11	0.721	0.217	0.262	0.137	0.65	0.626	0.563	0.177	0.164	0.298	0.311	0.211	0.157	0.18
NCI-H2170	0.721	0.629	0.644	0.323	0.201	0.268	0.25	0.275	0.221	0.187	–	–	–	–	–	0.732	0.749	0.424	0.34	0.199
NCI-H2342	0.529	0.643	0.589	0.468	0.383	–	–	–	–	–	–	–	–	–	–	–	–	–	–	–
SW 900	0.532	0.399	0.543	0.167	0.111	–	–	–	–	–	–	–	–	–	–	–	–	–	–	–
